Reference: patent US10500209B2, “Quinazolinones as bromodomain inhibitors” (Zenith Epigenetics Ltd., priority 2013, dated 2019)

Columns and labels:
[1] = system: c-myc in MV4-11 cells; experiment: Inhibition of c-myc expression in cancer cell lines (mRNA, real-time PCR); format: cell-based, Human; set-up: key: Active: Compounds with an IC50 value less than 30 μM were deemed to be active.; Not Active: Compounds with an IC50 value less than 30 μM were deemed to be active; conditions: 3 h
Method in brief: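 Duplex RT-qPCR of c-myc against cyclophilin cDNA gave IC50 from a dose–response curve. Input was isolated mRNA from 2.5×10^4 MV4-11 cells after 3 h exposure at 37 °C to compound or 0.1% DMSO vehicle.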

[2] = system: hIL-6 mRNA; experiment: Inhibition of hIL-6 mRNA transcription in LPS-stimulated U937 macrophages; format: cell-based, human; set-up: key: Active: Compounds with an IC50 value less than 30 μM were deemed to be active.; Not Active: Compounds with an IC50 value less than 30 μM were deemed to be active; conditions: U937 cells differentiated with PMA, LPS stimulation, 3 h
Method in brief: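 U937 cells, PMA-differentiated (60 ng/mL, 3 days), pretreated 1 h with compound, then stimulated with 1 ug/mL E. coli LPS for 3 h at 37° C. hIL-6 mRNA measured by one-step qRT-PCR, normalized to internal control, as fold induction relative to control.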

[3] = system: human AML MV-4-11 cells; experiment: Inhibition of cell proliferation in cancer cell lines (CellTiter Aqueous One); format: cell-based; set-up: key: Active: Compounds with an IC50 value less than 30 μM were deemed to be active.; Not Active: Compounds with an IC50 value less than 30 μM were deemed to be active; conditions: 72 h
Method in brief: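 IC50 values come from blank-corrected proliferation relative to DMSO controls, read as 490 nm absorbance 3–4 h after CellTiter Aqueous One addition. Before that, cells seeded at 5×10^4/well were exposed for 72 h (37° C, 5% CO2) to triplicate two-fold compound dilutions spanning 30–0.2 μM.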

[4] = target: T1, Brd4 bromodomain 1 (BRD4(1)) (Homo sapiens, UniProt O60885); experiment: Inhibition of tetra-acetylated histone H4 binding to BET bromodomains (TR-FRET); set-up: key: Active: Compounds with an IC50 value less than 30 μM were deemed to be active.; Not Active: Compounds with an IC50 value less than 30 μM were deemed to be active; conditions: first bromodomain of Brd4, tetra-acetylated histone H4 peptide
T1 construct: made in house; host or cells: E. coli BL21(DE3)
Method in brief: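 N-terminally His-tagged bromodomain (200 nM) from E. coli was mixed with biotinylated tetra-acetylated histone H4 peptide (25-50 nM), Eu-streptavidin and XL665 anti-His, plus compound, in HEPES pH 7.4 buffer with 0.2% DMSO. After 2 h at room temperature, the 665/620 nm TR-FRET decrease gave IC50 from dose-response curves.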

[5] = system: hApoA-1 mRNA; experiment: Up-regulation of hApoA-1 mRNA transcription in Huh7 cells; format: cell-based, human; set-up: key: Active: Compounds with an EC170 value less than 30 μM were deemed to be active; conditions: 48 h treatment
Procedure: In this example, ApoA-I mRNA in tissue culture cells was quantitated to measure the transcriptional up-regulation of ApoA-I when treated with a compound of the present disclosure.
Huh7 cells (2.5×10^5 per well) were plated in a 96-well plate using 100 μL DMEM per well, (Gibco DMEM supplemented with penicillin/streptomycin and 10% FBS), 24 h before the addition of the compound of interest. After 48 h treatment, the spent media was removed from the Huh-7 cells and placed on ice (for immediate use) or at −80° C. (for future use) with the “LDH cytotoxicity assay Kit II” from Abcam. The cells remaining in the plate were rinsed with 100 μL PBS.
Then 85 μL of cell lysis solution was added to each well and incubated for 5-10 min at room temperature, to allow for complete cell lysis and detachment. mRNA was then prepared using the “mRNA Catcher PLUS plate” from Life Technologies, according to the protocol supplied. After the last wash, as much wash buffer as possible was aspirated without allowing the wells to dry. Elution Buffer (E3, 80 μL) was then added to each well. mRNA was then eluted by incubating the mRNA Catcher PLUS plate with Elution Buffer for 5 min at 68° C., and then 1 min at 4° C. Catcher plates with mRNA eluted were kept on ice for use or stored at −80° C.
The eluted mRNA isolated was then used in a one-step real-time PCR reaction, using components of the Ultra Sense Kit together with Life Technologies primer-probe mixes. Real-time PCR data was analyzed, using the Ct values, to determine the fold induction of each unknown sample, relative to the control (that is, relative to the control for each independent DMSO concentration).
Compounds with an EC170 value less than 30 μM were deemed to be active.

[6] = system: hIL-17 mRNA; experiment: Inhibition of hIL-17 mRNA transcription in OKT3-stimulated PBMC; format: cell-based; set-up: key: Active: Compounds with an IC50 value less than 30 μM were deemed to be active.; Not Active: Compounds with an IC50 value less than 30 μM were deemed to be active; conditions: human peripheral blood mononuclear cells, OKT3 antibody, 6 h
Procedure: In this example, hIL-17 mRNA in human peripheral blood mononuclear cells was quantitated to measure the transcriptional inhibition of hIL-17 when treated with a compound of the invention.
Human peripheral blood mononuclear cells were plated (2.0×10^5 cells per well) in a 96-well plate in 45 μL OpTimizer T Cell expansion media containing 20 ng/ml IL-2 and penicillin/streptomycin. The cells were treated with the test compound (45 μL at 2x concentration), and then the cells were incubated at 37° C. for 1 h before addition of 10x stock OKT3 antibody at 10 ug/ml in media. Cells were incubated at 37° C. for 6 h before the cells were harvested. At time of harvest, cells were centrifuged (800 rpm, 5 min). Spent media was removed and cell lysis solution (70 μL) was added the cells in each well and incubated for 5-10 min at room temperature, to allow for complete cell lysis and detachment. mRNA was then prepared using the “mRNA Catcher PLUS plate” (Invitrogen), according to the protocol supplied. […]
The eluted mRNA isolated was then used in a one-step quantitative RT-PCR reaction, using components of the Ultra Sense Kit together with Applied Biosystems primer-probe mixes. Real-time PCR data was analyzed, normalizing the Ct values for hIL-17 to an internal control, prior to determining the fold induction of each unknown sample, relative to the control.

| Compound | c-myc activity (IC50 < 30 μM) [1] | melting point | IL-6 activity (IC50 < 30 μM) [2] | Cell Proliferation activity (IC50 < 30 μM) [3] | FRET activity BRD4(1) [4] | IL-17 activity (IC50 < 30 μM) [6] | ApoA-1 activity (EC170 < 30 μM) [5] |
| --- | --- | --- | --- | --- | --- | --- | --- |
| COc1ccc(-c2nc3cc(OC)cc(OC)c3c(=O)[nH]2)c(NC2CCN(C)CC2)c1 [Example 1, 5,7-Dimethoxy-2-(4-methoxy-2-((1-methylpiperidin-4-yl)amino)phenyl)-quinazolin-4(3H)-one] | Active | 252 to 253 °C | Active | Active | Active |  | Active |
| COc1ccc(-c2nc3cc(OC)cc(OC)c3c(=O)[nH]2)c(NCCCNC(C)C)c1 [Example 20, 2-(2-((3-(Isopropylamino)propyl)amino)-4-methoxyphenyl)-5,7-dimethoxyquinazolin-4(3H)-one] | Active | 208 to 210 °C | Active | Active | Active |  | Active |
| COc1ccc(-c2nc3cc(OC)cc(OC)c3c(=O)[nH]2)c(NCCN2CCN(C)CC2)c1 [Example 25, 5,7-Dimethoxy-2-(4-methoxy-2-((2-(4-methylpiperazin-1-yl)ethyl)amino)phenyl)-quinazolin-4(3H)-one] |  | 230 to 231 °C | Active |  | Active |  | Active |
| COc1cc(OC)c2c(=O)[nH]c(-c3ncccc3NC3CCN(C(=O)C(C)C)CC3)nc2c1 [Example 36, 2-(-((1-Isobutyrylpiperidin-4-yl)amino)pyridin-2-yl)-5,7-dimethoxyquinazolin-4(3H)-one] | Active |  | Active | Active | Active |  | Active |

The next lines start with results.

| c-myc activity (IC50 < 30 μM) [1] | melting point | IL-6 activity (IC50 < 30 μM) [2] | Cell Proliferation activity (IC50 < 30 μM) [3] | FRET activity BRD4(1) [4] | IL-17 activity (IC50 < 30 μM) [6] | Compound | ApoA-1 activity (EC170 < 30 μM) [5] |
| --- | --- | --- | --- | --- | --- | --- | --- |
| Active |  | Active | Active | Active | Active | COc1ccc(-c2nc3cc(OC)cc(OC)c3c(=O)[nH]2)c(NC2CCN(C(=O)C(C)C)CC2)c1 [Example 19, 2-(2-((1-Isobutyrylpiperidin-4-yl)amino)-4-methoxyphenyl)-5,7-dimethoxyquinazolin-4(3H)-one] |  |
| Active | 192 to 193 °C | Active | Active | Active |  | COc1cnc(-c2nc3cc(OC)cc(OC)c3c(=O)[nH]2)c(NC2CCN(C(=O)C(C)C)CC2)c1 [Example 32, 2-(3-((1-Isobutyrylpiperidin-4-yl)amino)-5-methoxypyridin-2-yl)-5,7-dimethoxyquinazolin-4(3H)-one] | Active |
